Series [1] relates to Rattus norvegicus. Briefly: Cardiorenal effect in Sprague-Dawley rat assessed as increase left ventricular fractional shortening at 9.9 nmol/kg/hr dosed by continuous infusion via osmotic mini pumps measured after 24 hrs by echocardiography relative to base line in sham treated control. It counts as functional.
For series [2], the system named is Rattus norvegicus. Briefly: Cardiorenal effect in Sprague-Dawley rat assessed as water intake level at 9.9 nmol/kg/hr dosed by continuous infusion via osmotic mini pumps […] (reference value: 3.3 mL/kg/hr). The series is classed as functional.
Series [3] deals with Rattus norvegicus. Briefly: Cardiorenal effect in Sprague-Dawley rat assessed as increase left ventricular fractional shortening at 9.9 nmol/kg/hr dosed by continuous infusion via osmotic mini pumps measured after 6 hrs by echocardiography relative to base line in sham treated control. The series is classed as functional.
Series [4] relates to Rattus norvegicus. As to the kind of experiment: Cardiorenal effect in Sprague-Dawley rat assessed as urinary output level at 9.9 nmol/kg/hr dosed by continuous infusion via osmotic mini pumps […] (reference value: 1.3 mL/kg/hr). It counts as functional.
Series [5] is described as follows: Cardiorenal effect in Sprague-Dawley rat assessed as reduction in blood pressure at 72 nmol/kg, iv […]. The note with it: in vivo. It counts as organism-based.
Series [6] deals with T1, Apelin receptor (Homo sapiens, UniProt P35414).
T1 sequence (P35414 whole entry): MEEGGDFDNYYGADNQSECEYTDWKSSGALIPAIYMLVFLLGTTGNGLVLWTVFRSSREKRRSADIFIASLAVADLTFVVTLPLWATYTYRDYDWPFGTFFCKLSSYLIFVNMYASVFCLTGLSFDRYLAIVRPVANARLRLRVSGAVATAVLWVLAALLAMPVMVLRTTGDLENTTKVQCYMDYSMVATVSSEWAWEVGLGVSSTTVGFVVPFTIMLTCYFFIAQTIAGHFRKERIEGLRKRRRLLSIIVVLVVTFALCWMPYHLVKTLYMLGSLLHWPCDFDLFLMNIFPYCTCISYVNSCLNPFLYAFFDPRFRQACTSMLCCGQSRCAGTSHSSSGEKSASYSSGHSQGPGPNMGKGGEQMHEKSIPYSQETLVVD
Briefly: Displacement of [125I] [NIe75, Tyr77]Pyr-apelin-13 from YFP-tagged human APJ receptor expressed in HEK293 cell membranes incubated for 1 hr by gamma counting based Cheng-Prusoff equation analysis. Background: Loss of bound radioactivity is the signal in a displacement assay; it reports binding, not function.

Series [7] deals with T1, Apelin receptor. As to the kind of experiment: Agonist activity at human APJ receptor expressed in HEK293 cells co-expressing Galpha(i1)-RlucII(91) assessed as induction of dissociation of Galpha(i1) from G-beta-gamma subunits incubated for 5 mins by BRET assay. The series is classed as cell-based.
Series [8] has as its target T1, Apelin receptor. As to the kind of experiment: Agonist activity at human APJ receptor expressed in HEK293 cells co-expressing Rlucll-beta-arrestin2 assessed as induction of beta-arrestin2 recruitment to APJ incubated for 30 mins by BRET assay. The series is classed as cell-based. A general note: Arrestin recruitment assays detect the binding of arrestin to an activated receptor.

For series [9], the target named is T1, Apelin receptor. Briefly: Agonist activity at human APJ receptor expressed in HEK293T cells co-expressing PDZ-Rho-Gef-RLucll assessed as induction of Galpha12 effector (PDZ-RhoGEF) to the cell membrane incubated for 5 mins by BRET assay. It counts as functional, cell-based. In general terms: BRET reads energy transfer from a luciferase to a nearby fluorophore.

Series [10] has as its target T2, Apelin receptor (Homo sapiens) (UniProt P35414).
T2 sequence (whole entry): T1 sequence (P35414 whole entry)
As to the kind of experiment: Agonist activity at human APJ receptor expressed in HEK293 cells co-expressing […] assessed as induction of Galpha12 effector (PDZ-RhoGEF) to the cell membrane incubated for 5 mins by BRET assay relative to control. The series is classed as functional, cell-based. The conditions noted are these: filed as agonist.

Series [11] in a line: Cardiorenal effect in Sprague-Dawley rat assessed as reduction in blood pressure at 5 nmol/kg, iv […]. The series is classed as organism-based. The note with it: in vivo.

The values that follow come from ChEMBL document CHEMBL4765470 (J Med Chem, 2021).

pEC50, pKi: −log10 of the molar value. Non-standard residues stand in square brackets, D forms with d. Residues, ends and D or L forms follow the SMILES beside them. Cha = N[C@@H](CC1CCCCC1)C(=O)O; Nle = CCCC[C@H](N)C(=O)O

For `CCCC[C@H](N)C(=O)N1CCC[C@H]1C(=O)N[C@@H](CC(C)C)C(=O)N[C@@H](Cc1cnc[nH]1)C(=O)N[C@@H](CO)C(=O)N[C@@H](CCCNC(=N)N)C(=O)N[C@H](C(=O)N1CCC[C@H]1C(=O)N[C@@H](Cc1ccccc1)C(=O)N1CCC[C@H]1C(=O)O)C(C)C`, the Activity is 19% with Rattus norvegicus [1]; 4.5 mL/h/kg in the series with Rattus norvegicus [2]; 11% with Rattus norvegicus [3]; 2.7 mL/h/kg in the series on Rattus norvegicus [4]; “Non-Toxic” in [5].

Consider `CCCC[C@H](N)C(=O)N1CCC[C@H]1C(=O)N[C@@H](CC(C)C)C(=O)N[C@@H](Cc1cnc[nH]1)C(=O)N[C@@H](CO)C(=O)N[C@@H](CCCNC(=N)N)C(=O)N[C@H](C(=O)N1CCC[C@H]1C(=O)N[C@@H](CC1CCCCC1)C(=O)N1CCC[C@H]1C(=O)O)C(C)C` (H-[Nle]PLHSRVP[Cha]P-OH), for which the pKi (usually −log10 of the Ki, conventionally taken in molar units) on Apelin receptor [6] is 8.40. For the same compound, the values for the pEC50 on Apelin receptor [7], on Apelin receptor [8] and on Apelin receptor [9] were 7.77, 6.03 and 7.27, respectively. Moreover, in series [10], the Emax (commonly the maximal effect, on the per cent scale that the assay sets) stood at 43%.

In turn, `CCCC[C@H](N)C(=O)N1CCC[C@H]1C(=O)N[C@@H](CC(C)C)C(=O)N[C@@H](Cc1cnc[nH]1)C(=O)N[C@@H](CO)C(=O)N[C@@H](CCCNC(=N)N)C(=O)N[C@H](C(=O)N1CCC[C@H]1C(=O)N[C@@H](Cc1ccccc1)C(=O)N[C@@H](Cc1ccccc1)C(=O)O)C(C)C` (H-[Nle]PLHSRVPFF-OH) showed a pKi on Apelin receptor [6] of 8.40. The pEC50 (commonly the EC50 on a negative log10 scale, so that one unit is a factor of ten) on Apelin receptor [7] is 8.64; at Apelin receptor [8], 7.28; on Apelin receptor [9], 7.37.

`CSCC[C@H](NC(=O)[C@@H](NC(=O)[C@H](CC(C)C)NC(=O)[C@H](CC(N)=O)NC(=O)[C@@H](NC(=O)[C@@H]1CCCN1C(=O)[C@H](CCCNC(=N)N)NC(=O)[C@@H]1CCC(=O)N1)C(C)C)[C@@H](C)O)C(=O)N[C@@H](C)C(=O)N[C@@H](CCCNC(=N)N)C(=O)N[C@@H](CCCCN)C(=O)N[C@@H](CC(C)C)C(=O)N[C@@H](CCCNC(=N)N)C(=O)N[C@@H](CCCCN)C(=O)N[C@@H](Cc1cnc[nH]1)C(=O)N[C@@H](CC(N)=O)C(=O)N[C@H]1CSSC[C@@H](C(=O)N[C@@H](CCSC)C(=O)N2CCC[C@H]2C(=O)N[C@@H](CC(C)C)C(=O)N[C@@H](Cc2cnc[nH]2)C(=O)N[C@@H](CO)C(=O)N[C@@H](CCCNC(=N)N)C(=O)N[C@H](C(=O)N2CCC[C@H]2C(=O)N[C@@H](Cc2ccccc2)C(=O)N2CCC[C@H]2C(=O)O)C(C)C)NC(=O)[C@H](CCCNC(=N)N)NC(=O)[C@H](CCCNC(=N)N)NC(=O)[C@H](CCC(N)=O)NC(=O)[C@H](CC(C)C)NC1=O` had a pKi at Apelin receptor [6] of 9.72. Further, the pEC50 was 8.28 on Apelin receptor [7], 7.35 on Apelin receptor [8] and 7.60 at Apelin receptor [9]. For the same compound, the Activity is 27% in the series on Rattus norvegicus [1]; 5 mL/h/kg in the series with Rattus norvegicus [2]; 18% in the series with Rattus norvegicus [3]; 3.5 mL/h/kg in the series on Rattus norvegicus [4]; “<= 40 mmHg” in [11].
